# Assay results: PubChem BioAssay AID256 (DTP/NCI, 2004)
# Several values for one entry are separate records, joined by “and”; a condition that tells them apart may be missing. Identical values can stand only once. Inconclusive results and toxic doses are left out.
# Tested on: CD2F1 mice, L1210 leukemia ip, survival T/C
# Assay: NCI In Vivo Anticancer Drug Screen. Data for tumor model L1210 Leukemia (intraperitoneal) in CD2F1 (CDF1) mice
# Conditions: higher = longer survival
# In short: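 Read-out first: treated-group measurement over vehicle-control measurement, expressed as a ratio. Animals bore a transplanted tumor line and were dosed with compound or vehicle.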
# [1] = endpoint: mean survival time, dose: 100.0 mg/kg/injection, schedule: Q04DX003 (ip), vehicle: saline with Tween-80
# [2] = endpoint: mean survival time, dose: 50.0 mg/kg/injection, schedule: Q01DX009 (ip), vehicle: saline with Tween-80
# [3] = endpoint: mean survival time, dose: 100.0 mg/kg/injection, schedule: Q01DX009 (ip), vehicle: saline with Tween-80
structure (smiles),measurement,setting,value
S=P(N1CC1)(N1CC1)N1CC1,T/C,"endpoint: mean survival time, dose: 0.5 mg/kg/injection, schedule: Q01DX009 (ip), vehicle: saline",112 % of control
same,T/C,"endpoint: mean survival time, dose: 0.5 mg/kg/injection, schedule: Q03HX024 (ip), vehicle: saline",112 % of control
same,T/C,"endpoint: mean survival time, dose: 1.0 mg/kg/injection, schedule: Q01DX005 (iv), vehicle: saline",101 % of control
same,T/C,"endpoint: mean survival time, dose: 1.0 mg/kg/injection, schedule: Q01DX009 (ip), vehicle: saline",96 % of control and 112 % of control
same,T/C,"endpoint: mean survival time, dose: 1.0 mg/kg/injection, schedule: Q01DX009 (sc), vehicle: saline",114 % of control
same,T/C,"endpoint: mean survival time, dose: 1.0 mg/kg/injection, schedule: Q03HX008 (ip), vehicle: saline",106 % of control
same,T/C,"endpoint: mean survival time, dose: 1.0 mg/kg/injection, schedule: Q03HX016 (ip), vehicle: saline",104 % of control
same,T/C,"endpoint: mean survival time, dose: 1.5 mg/kg/injection, schedule: Q01DX009 (ip), vehicle: saline",111 % of control
same,T/C,"endpoint: mean survival time, dose: 2.0 mg/kg/injection, schedule: Q01DX005 (iv), vehicle: saline",108 % of control
same,T/C,"endpoint: mean survival time, dose: 2.0 mg/kg/injection, schedule: Q01DX009 (ip), vehicle: saline",120 % of control and 122 % of control (2×)
same,T/C,"endpoint: mean survival time, dose: 2.0 mg/kg/injection, schedule: Q03DX003 (ip), vehicle: saline",112 % of control
same,T/C,"endpoint: mean survival time, dose: 2.0 mg/kg/injection, schedule: Q03HX008 (ip), vehicle: saline",118 % of control
same,T/C,"endpoint: mean survival time, dose: 2.0 mg/kg/injection, schedule: Q03HX016 (ip), vehicle: saline",117 % of control
same,T/C,"endpoint: mean survival time, dose: 2.0 mg/kg/injection, schedule: Q03HX024 (ip), vehicle: saline",88 % of control
same,T/C,"endpoint: mean survival time, dose: 2.0 mg/kg/injection, schedule: Q04DX003 (ip), vehicle: saline",101 % of control
same,T/C,"endpoint: mean survival time, dose: 2.5 mg/kg/injection, schedule: Q04DX003 (ip), vehicle: saline",101 % of control
same,T/C,"endpoint: mean survival time, dose: 4.0 mg/kg/injection, schedule: Q01DX001 (iv), vehicle: saline",117 % of control
same,T/C,"endpoint: mean survival time, dose: 4.0 mg/kg/injection, schedule: Q01DX001 (sc), vehicle: saline",103 % of control
same,T/C,"endpoint: mean survival time, dose: 4.0 mg/kg/injection, schedule: Q01DX007 (ip), vehicle: saline",158 % of control
same,T/C,"endpoint: mean survival time, dose: 4.0 mg/kg/injection, schedule: Q01DX009 (ip), vehicle: saline",154 % of control and 166 % of control and 171 % of control
same,T/C,"endpoint: mean survival time, dose: 4.0 mg/kg/injection, schedule: Q01DX009 (oral), vehicle: saline",122 % of control
same,T/C,"endpoint: mean survival time, dose: 4.0 mg/kg/injection, schedule: Q04DX003 (ip), vehicle: saline",120 % of control
same,T/C,"endpoint: mean survival time, dose: 6.0 mg/kg/injection, schedule: Q01DX001 (ip), vehicle: saline",115 % of control
same,T/C,"endpoint: mean survival time, dose: 7.7 mg/kg/injection, schedule: Q01DX001 (ip), vehicle: saline with Tween-80",112 % of control
same,T/C,"endpoint: mean survival time, dose: 7.7 mg/kg/injection, schedule: Q01DX001 (ip), vehicle: saline",123 % of control and 106 % of control
same,T/C,"endpoint: mean survival time, dose: 8.0 mg/kg/injection, schedule: Q01DX001 (ip), vehicle: saline",110 % of control
same,T/C,"endpoint: mean survival time, dose: 8.0 mg/kg/injection, schedule: Q01DX001 (sc), vehicle: saline",115 % of control
same,T/C,"endpoint: mean survival time, dose: 8.0 mg/kg/injection, schedule: Q01DX007 (ip), vehicle: saline",110 % of control
same,T/C,"endpoint: mean survival time, dose: 8.0 mg/kg/injection, schedule: Q01DX009 (sc), vehicle: saline",114 % of control
same,T/C,"endpoint: mean survival time, dose: 8.0 mg/kg/injection, schedule: Q03DX003 (ip), vehicle: saline",209 % of control
same,T/C,"endpoint: mean survival time, dose: 8.0 mg/kg/injection, schedule: Q04DX003 (ip), vehicle: saline",179 % of control and 183 % of control
same,T/C,"endpoint: mean survival time, dose: 8.0 mg/kg/injection, schedule: Q08DX002 (ip), vehicle: saline",122 % of control
same,T/C,"endpoint: mean survival time, dose: 10.0 mg/kg/injection, schedule: Q04DX003 (ip), vehicle: saline",153 % of control
same,T/C,"endpoint: mean survival time, dose: 10.9 mg/kg/injection, schedule: Q01DX001 (ip), vehicle: saline with Tween-80",122 % of control
same,T/C,"endpoint: mean survival time, dose: 10.9 mg/kg/injection, schedule: Q01DX001 (ip), vehicle: saline",122 % of control and 124 % of control
same,T/C,"endpoint: mean survival time, dose: 12.0 mg/kg/injection, schedule: Q01DX001 (ip), vehicle: saline",153 % of control
same,T/C,"endpoint: mean survival time, dose: 15.0 mg/kg/injection, schedule: Q01DX001 (ip), vehicle: saline",161 % of control
same,T/C,"endpoint: mean survival time, dose: 16.0 mg/kg/injection, schedule: Q01DX001 (ip), vehicle: saline",154 % of control
same,T/C,"endpoint: mean survival time, dose: 16.0 mg/kg/injection, schedule: Q01DX001 (iv), vehicle: saline",155 % of control
same,T/C,"endpoint: mean survival time, dose: 16.0 mg/kg/injection, schedule: Q01DX009 (ip), vehicle: saline",96 % of control
same,T/C,"endpoint: mean survival time, dose: 16.0 mg/kg/injection, schedule: Q01DX009 (oral), vehicle: saline",120 % of control
same,T/C,"endpoint: mean survival time, dose: 16.0 mg/kg/injection, schedule: Q04DX003 (ip), vehicle: saline",95 % of control
same,T/C,"endpoint: mean survival time, dose: 20.0 mg/kg/injection, schedule: Q04DX003 (ip), vehicle: saline",124 % of control
same,T/C,"endpoint: mean survival time, dose: 22.4 mg/kg/injection, schedule: Q01DX001 (ip), vehicle: saline with Tween-80",163 % of control
same,T/C,"endpoint: mean survival time, dose: 32.0 mg/kg/injection, schedule: Q01DX001 (ip), vehicle: saline with Tween-80",89 % of control
same,T/C,"endpoint: mean survival time, dose: 32.0 mg/kg/injection, schedule: Q01DX001 (oral), vehicle: saline",154 % of control
same,T/C,"endpoint: median survival time, dose: 1.56 mg/kg/injection, schedule: Q01DX009 (ip), vehicle: saline",117 % of control
same,T/C,"endpoint: median survival time, dose: 3.0 mg/kg/injection, schedule: Q01DX009 (ip), vehicle: water",97 % of control
same,T/C,"endpoint: median survival time, dose: 3.13 mg/kg/injection, schedule: Q01DX009 (ip), vehicle: saline",164 % of control and 178 % of control
same,T/C,"endpoint: median survival time, dose: 6.0 mg/kg/injection, schedule: Q01DX009 (ip), vehicle: water",95 % of control
same,T/C,"endpoint: median survival time, dose: 8.0 mg/kg/injection, schedule: Q01DX009 (ip), vehicle: water",88 % of control
same,T/C,"endpoint: median survival time, dose: 12.5 mg/kg/injection, schedule: Q01DX009 (ip), vehicle: saline",88 % of control and 107 % of control
same,T/C,"endpoint: median survival time, dose: 16.0 mg/kg/injection, schedule: Q01DX009 (ip), vehicle: water",77 % of control
same,T/C,"endpoint: median survival time, dose: 20.0 mg/kg/injection, schedule: Q01DX001 (ip), vehicle: saline",172 % of control
same,T/C,"endpoint: median survival time, dose: 25.0 mg/kg/injection, schedule: Q01DX001 (ip), vehicle: saline",193 % of control
CC1CC(C)(C)NC(CC2CCCCC2O)O1 (stereo unspecified),T/C,[1],94 % of control
CCCC(=O)OCc1ccc(Cl)c(Cl)c1,T/C,[2],97 % of control
same,T/C,[3],92 % of control
same,T/C,[1],91 % of control
same,T/C,"endpoint: mean survival time, dose: 200.0 mg/kg/injection, schedule: Q04DX003 (ip), vehicle: saline with Tween-80",87 % of control
C/C(=C\Cl)CNC(C)C,T/C,"endpoint: mean survival time, dose: 25.0 mg/kg/injection, schedule: Q01DX009 (ip), vehicle: saline with Tween-80",101 % of control
same,T/C,[2],100 % of control
same,T/C,"endpoint: mean survival time, dose: 100.0 mg/kg/injection, schedule: Q01DX001 (ip), vehicle: acetone",98 % of control
NC1CCCCC1N.O=S(=O)([O-])CCCNC1CCCCC1.O=S(=O)([O-])CCCNC1CCCCC1.[Pt+4],T/C,"endpoint: median survival time, dose: 0.78 mg/kg/injection, schedule: Q04DX003 (ip), vehicle: saline",168 % of control
same,T/C,"endpoint: median survival time, dose: 1.56 mg/kg/injection, schedule: Q04DX003 (ip), vehicle: saline",256 % of control
same,T/C,"endpoint: median survival time, dose: 3.12 mg/kg/injection, schedule: Q04DX003 (ip), vehicle: saline",361 % of control and 365 % of control
same,T/C,"endpoint: median survival time, dose: 6.25 mg/kg/injection, schedule: Q04DX003 (ip), vehicle: saline",169 % of control and 240 % of control
O=S1(=O)CC(Cl)(Br)C1 (tested in a mixture with another compound),T/C,"endpoint: mean survival time, dose: 50.0 mg/kg/injection, schedule: Q01DX009 (ip), vehicle: Klucel (hydroxypropylcellulose) (HPC)",92 % of control
same,T/C,"endpoint: mean survival time, dose: 100.0 mg/kg/injection, schedule: Q01DX009 (ip), vehicle: Klucel (hydroxypropylcellulose) (HPC)",107 % of control
same,T/C,"endpoint: mean survival time, dose: 200.0 mg/kg/injection, schedule: Q01DX009 (ip), vehicle: Klucel (hydroxypropylcellulose) (HPC)",103 % of control
CC(=O)Nc1ccc(S(=O)(=O)N=C(N)N)cc1,T/C,"endpoint: mean survival time, dose: 75.0 mg/kg/injection, schedule: Q04DX002 (ip), vehicle: saline",114 % of control
same,T/C,"endpoint: mean survival time, dose: 150.0 mg/kg/injection, schedule: Q04DX002 (ip), vehicle: saline",100 % of control
same,T/C,"endpoint: mean survival time, dose: 300.0 mg/kg/injection, schedule: Q04DX002 (ip), vehicle: saline",91 % of control
O=[N+]([O-])c1ccccc1CSc1ncnc2nc[nH]c12,T/C,[2],110 % of control
same,T/C,"endpoint: mean survival time, dose: 50.0 mg/kg/injection, schedule: Q04DX003 (ip), vehicle: saline with Tween-80",108 % of control
same,T/C,[3],121 % of control
same,T/C,[1],110 % of control
same,T/C,"endpoint: mean survival time, dose: 132.0 mg/kg/injection, schedule: Q04DX003 (ip), vehicle: saline with Tween-80",108 % of control
same,T/C,"endpoint: mean survival time, dose: 200.0 mg/kg/injection, schedule: Q01DX009 (ip), vehicle: saline with Tween-80",158 % of control
O=C1c2ccc([N+](=O)[O-])cc2-c2c1cccc2[N+](=O)[O-],T/C,"endpoint: mean survival time, dose: 25.0 mg/kg/injection, schedule: Q04DX002 (ip), vehicle: saline with Tween-80",95 % of control
same,T/C,"endpoint: mean survival time, dose: 50.0 mg/kg/injection, schedule: Q04DX002 (ip), vehicle: saline with Tween-80",87 % of control
